Assay: recombinant UMI read abundance after kanamycin selection (control-corrected) (log10(CPM+1)); higher = more efficient recombination; extreme values may be limits of the assay; sequences stand for … in AGTGCAGAGAAAATCGGCCAGTTTTCTCTGCCTGCAGTCCGCATGCCGTGGGACCCCTTGGGTTCTAACCTGTTGCCTAGATTTATGCAGCGGACTGCCTTTCTCCCAAAGTGATAAACCGG…AGGTTGGTTTCACT; site = the 11-nt donor
Procedure, shortened: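 After plating on IPTG (0.07 mM) plus kanamycin, or unselected, in two replicates, recombinant UMIs were PCR-amplified across the donor–target junction and sequenced. The cells were Escherichia coli co-electroporated with a UMI-tagged donor and donor-binding-loop pair library and a target plasmid with a fixed target and T7-inducible IS621 bridge recombinase. Values are log10(CPM+1), with CPM averaged over replicates and scaled by control-derived factors.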

Row | Sequence | recombinant UMI read abundance (log10)
1 | TAGCTAGCATGGACCGGTTTTCCCGGTAATCCGTATTTGAA (site TAACTAGCTTT) | 0.822
2 | TAGCTAGCATGGACCGGTTTTCCCGGTAATCCGTATTTGAA (site TACCTAGCTTT) | 0.015
3 | TAGCTAGCATGGACCGGTTTTCCCGGTAATCCGTATTTGAA (site TAGATAGCTTT) | 0.0135
4 | TAGCTAGCATGGACCGGTTTTCCCGGTAATCCGTATTTGAA (site TAGCAAGCTTT) | 0.00493
5 | TAGCTAGCATGGACCGGTTTTCCCGGTAATCCGTATTTGAA (site TAGCCAGCTTT) | 0.0109
6 | TAGCTAGCATGGACCGGTTTTCCCGGTAATCCGTATTTGAA (site TAGCGAGCTTT) | 0.0252
7 | TAGCTAGCATGGACCGGTTTTCCCGGTAATCCGTATTTGAA (site TAGCTAACTTT) | 0.0471
8 | TAGCTAGCATGGACCGGTTTTCCCGGTAATCCGTATTTGAA (site TAGCTACCTTT) | 0.0202
9 | TAGCTAGCATGGACCGGTTTTCCCGGTAATCCGTATTTGAA (site TAGCTAGCTAT) | 0.502
10 | TAGCTAGCATGGACCGGTTTTCCCGGTAATCCGTATTTGAA (site TAGCTAGCTCT) | 0.00536
11 | TAGCTAGCATGGACCGGTTTTCCCGGTAATCCGTATTTGAA (site TAGCTAGCTGT) | 1.28
12 | TAGCTAGCATGGACCGGTTTTCCCGGTAATCCGTATTTGAA (site TAGCTAGCTTA) | 0.00377
13 | TAGCTAGCATGGACCGGTTTTCCCGGTAATCCGTATTTGAA (site TAGCTAGCTTC) | 0.504
14 | TAGCTAGCATGGACCGGTTTTCCCGGTAATCCGTATTTGAA (site TAGCTAGCTTG) | 0.0037
15 | TAGCTAGCATGGACCGGTTTTCCCGGTAATCCGTATTTGAA (site TAGCTAGCTTT) | 0.858
16 | TAGCTAGCATGGACCGGTTTTCCCGGTAATCCGTATTTGAA (site TAGCTATCTTT) | 0.588
17 | TAGCTAGCATGGACCGGTTTTCCCGGTAATCCGTATTTGAA (site TAGCTCGCTTT) | 0.0026
18 | TAGCTAGCATGGACCGGTTTTCCCGGTAATCCGTATTTGAA (site TAGCTGGCTTT) | 0.0168
19 | TAGCTAGCATGGACCGGTTTTCCCGGTAATCCGTATTTGAA (site TAGCTTGCTTT) | 0.00961
20 | TAGCTAGCATGGACCGGTTTTCCCGGTAATCCGTATTTGAA (site TAGGTAGCTTT) | 0.0179
21 | TAGCTAGCATGGACCGGTTTTCCCGGTAATCCGTATTTGAA (site TAGTTAGCTTT) | 0.0249
22 | TAGCTAGCATGGACCGGTTTTCCCGGTAATCCGTATTTGAA (site TATCTAGCTTT) | 0.0236
23 | TAGCTAGCATGGACCGGTTTTCCCGGTAATCCGTATTTGAA (site TCGCTAGCTTT) | 0.00871
24 | TAGCTAGCATGGACCGGTTTTCCCGGTAATCCGTATTTGAA (site TGGCTAGCTTT) | 0.0087
25 | TAGCTAGCATGGACCGGTTTTCCCGGTAATCCGTATTTGAA (site TTGCTAGCTTT) | 0.00459

Row | Sequence | recombinant UMI read abundance (log10)
26 | TAGCTGACATGGACCGGTTTTCCCGGTAATCCGTATTTGCG (site TAGCTGACTCG) | 1.5
27 | TAGGAATCATGGACCGGTTTTCCCGGTAATCCGTATTTGCA (site TAGGAATCTAG) | 1.62
28 | TAGGAATCATGGACCGGTTTTCCCGGTAATCCGTATTTGCA (site TAGGAATCTCG) | 1.64
29 | TAGGAATCATGGACCGGTTTTCCCGGTAATCCGTATTTGCA (site TAGGAATCTGG) | 0.896
30 | TAGGAATCATGGACCGGTTTTCCCGGTAATCCGTATTTGCA (site TAGGAATCTTG) | 2.82
31 | TAGGAATCATGGACCGGTTTTCCCGGTAATCCGTATTTGTG (site TAGGAATCTCA) | 3.2
32 | TAGGAATCATGGACCGGTTTTCCCGGTAATCCGTATTTGTG (site TAGGAATCTCC) | 2.13
33 | TAGGAATCATGGACCGGTTTTCCCGGTAATCCGTATTTGTG (site TAGGAATCTCG) | 2.63
34 | TAGGAATCATGGACCGGTTTTCCCGGTAATCCGTATTTGTG (site TAGGAATCTCT) | 2.59
35 | TAGGAGTCATGGACCGGTTTTCCCGGTAATCCGTATTTGCG (site TAGGAATCTCG) | 3.12
36 | TAGGAGTCATGGACCGGTTTTCCCGGTAATCCGTATTTGCG (site TAGGACTCTCG) | 1.24
37 | TAGGAGTCATGGACCGGTTTTCCCGGTAATCCGTATTTGCG (site TAGGAGTCTCG) | 3.24
38 | TAGGAGTCATGGACCGGTTTTCCCGGTAATCCGTATTTGCG (site TAGGATTCTCG) | 0.951
39 | TAGGCCGCATGGACCGGTTTTCCCGGTAATCCGTATTTGTG (site CCATTGACTTT) | 0.00523
40 | TAGGCTTCATGGACCGGTTTTCCCGGTAATCCGTATTTGGT (site TAGACTTCTAC) | 0.0923
41 | TAGGCTTCATGGACCGGTTTTCCCGGTAATCCGTATTTGGT (site TAGCCTTCTAC) | 0.0146
42 | TAGGCTTCATGGACCGGTTTTCCCGGTAATCCGTATTTGGT (site TAGGCTTCTAC) | 1.54
43 | TAGGCTTCATGGACCGGTTTTCCCGGTAATCCGTATTTGGT (site TAGTCTTCTAC) | 0.0132
44 | TAGGGAACATGGACCGGTTTTCCCGGTAATCCGTATTTGGC (site TAGGGAACTGC) | 1.53
45 | TAGGTTGCATGGACCGGTTTTCCCGGTAATCCGTATTTGTA (site TAGGTTGCTTA) | 2.39
46 | TAGTAACCATGGACCGGTTTTCCCGGTAATCCGTATTTGAG (site TAGTAACCTCT) | 0.00753
47 | TAGTGCCCATGGACCGGTTTTCCCGGTAATCCGTATTTGGC (site TAGTGCCCTGC) | 0
48 | TAGTGTTCATGGACCGGTTTTCCCGGTAATCCGTATTTGCA (site TAGTGTTCTTG) | 2.49
49 | TAGTTGGCATGGACCGGTTTTCCCGGTAATCCGTATTTGGG (site TAGTTGGCTCC) | 0.0252
50 | TATAAGCCATGGACCGGTTTTCCCGGTAATCCGTATTTGCC (site TATAAGCCTGG) | 0

Row | Sequence | recombinant UMI read abundance (log10)
51 | TATAGCGCATGGACCGGTTTTCCCGGTAATCCGTATTTGGC (site TATAGCGCTGC) | 2.48
52 | TATAGGCCATGGACCGGTTTTCCCGGTAATCCGTATTTGAG (site TATAGGCCTCT) | 0.0191
53 | TATCATTCATGGACCGGTTTTCCCGGTAATCCGTATTTGGG (site TATCATTCTCC) | 0.00534
54 | TATCCGTCATGGACCGGTTTTCCCGGTAATCCGTATTTGAA (site TATCCGTCTTT) | 0.0803
55 | TATGAGTCATGGACCGGTTTTCCCGGTAATCCGTATTTGCT (site TATGAGTCTAG) | 2.74
56 | TATGCAACATGGACCGGTTTTCCCGGTAATCCGTATTTGTT (site TATGCAACTAA) | 0.0144
57 | TATGCACCATGGACCGGTTTTCCCGGTAATCCGTATTTGGT (site TATGCACCTAC) | 0.0323
58 | TATGTGTCATGGACCGGTTTTCCCGGTAATCCGTATTTGAC (site AATGTGTCTGT) | 0
59 | TATGTGTCATGGACCGGTTTTCCCGGTAATCCGTATTTGAC (site CATGTGTCTGT) | 0
60 | TATGTGTCATGGACCGGTTTTCCCGGTAATCCGTATTTGAC (site GATGTGTCTGT) | 0
61 | TATGTGTCATGGACCGGTTTTCCCGGTAATCCGTATTTGAC (site TATGTGTCTGT) | 0.884
62 | TATTACACATGGACCGGTTTTCCCGGTAATCCGTATTTGCC (site TATTACACTGG) | 2.37
63 | TATTAGACATGGACCGGTTTTCCCGGTAATCCGTATTTGCG (site TATTAGACTCG) | 1.03
64 | TATTGGGCATGGACCGGTTTTCCCGGTAATCCGTATTTGTG (site TATTAGGCTCA) | 0.0242
65 | TATTGGGCATGGACCGGTTTTCCCGGTAATCCGTATTTGTG (site TATTCGGCTCA) | 0.00589
66 | TATTGGGCATGGACCGGTTTTCCCGGTAATCCGTATTTGTG (site TATTGGGCTCA) | 0.226
67 | TATTGGGCATGGACCGGTTTTCCCGGTAATCCGTATTTGTG (site TATTTGGCTCA) | 0.0234
68 | TATTGTGCATGGACCGGTTTTCCCGGTAATCCGTATTTGGT (site TATTGTGCTAC) | 0.401
69 | TATTTGTCATGGACCGGTTTTCCCGGTAATCCGTATTTGTG (site TATTTGACTCA) | 0.0169
70 | TATTTGTCATGGACCGGTTTTCCCGGTAATCCGTATTTGTG (site TATTTGCCTCA) | 0.0214
71 | TATTTGTCATGGACCGGTTTTCCCGGTAATCCGTATTTGTG (site TATTTGGCTCA) | 0.0347
72 | TATTTGTCATGGACCGGTTTTCCCGGTAATCCGTATTTGTG (site TATTTGTCTCA) | 0.515
73 | TATTTTGCATGGACCGGTTTTCCCGGTAATCCGTATTTGTG (site TATTTAGCTCA) | 0.00468
74 | TATTTTGCATGGACCGGTTTTCCCGGTAATCCGTATTTGTG (site TATTTCGCTCA) | 0.0112
75 | TATTTTGCATGGACCGGTTTTCCCGGTAATCCGTATTTGTG (site TATTTGGCTCA) | 0

— the supplement of paper PMC11208160
